What was measured:
SKKanGAS = experiment: Growth-based turbidometric screen, SKKanGAS under kanamycin (kanamycin resistance gene under ska promoter); format: cell-based, Group A Streptococcus; details: for effect on SKKanGAS and SK-GAS growth: dose response under kanamycin selection, FIG. 11
From the text: A GAS strain was generated to have kanamycin resistance gene under the control of ski promoter to be used to screen for SK inhibitors. A transgenic GAS has been generated in SK(+)GAS host so that kanamycin resistance gene is driven by ska promoter in an extrachromosomal plasmid. The engineered GAS strain (SKKanGAS) was also kanamycin resistant. This kanamycin resistance gene in SK(−)GAS strain is within the omega-Km2 element whose promoter is independent of ska promoter (Khil et al., J. Infect. Dis. 2003; 188:497-505; Ringdahl et al., J. Biol. Chem. 1998; 273:6424-6430). As a result, SK(−)GAS can serve as a control in the screen for SK promoter to weed out compounds that inhibit GAS growth or interfere with kanamycin resistance protein function. […] A cutoff criterion was set to select compounds that can inhibit 50% growth in SKKanGAS while inhibiting less than 10% growth in SK(−)GAS. A total of 95 compounds met this criterion. As a result, these compounds were chosen for dose response assays and pIC50 of growth inhibition of each hit compound was then estimated. […] An example is given as FIG. 10.
Only SKKanGAS is used for screening in the primary screening. Briefly, 30 μl THY medium containing 20 μg/ml kanamycin is first plated into 384-well plates (384 microtiter plate, Corning #3701) and compounds are added into the wells. SKKanGAS strain is grown to OD600 nm=0.8. SKKanGAS is then diluted 12.5 fold into 20 μg/ml kanamycin THY medium. SKKanGAS mixture (10 μl) is added into each well of the 384-well plates. […] The plates are cultured at 37° C. for 16-20 hours. Growth of bacteria in each well is measured by absorbance at 600 nm. Z′>0.5, which is compatible with high throughput screening, has been typically obtained with the 384-well plate format in which 55,000 small compounds have been screened. […] SKKanGAS is a BSL2 level agent and can be stored at −80° C. SKKanGAS can be cultured at 37° C. in THY or Bill medium which is commercially available (Fisher Scientific, Pittsburgh, Pa.).
Once hit compounds have been identified by the primary screening, they are applied to dose response assays with both SKKanGAS and SK(−)GAS stains. SKKanGAS and SK(−)GAS are grown in 20 μg/ml kanamycin with serial dilution of hit compounds (DMSO final concentration=1% in THY medium). Plates are incubated at 37° C. for 15-20 hours in a climate controlled room (humidity 50%). The absorbance is measured at 600 nm. pIC50 of growth inhibition of each hit compound is then determined. Compounds that with at least 10 fold lower IC50 in SKKanGAS than SK(−)GAS strain are identified and subjected to secondary confirmatory assay. As a result, dose response assay identifies and eliminates most nonspecific compounds that may inhibit GAS growth or interfere with kanamycin resistance protein function.

SK(+)GAS (UMAA2616) = experiment: Survival of human plasminogen transgenic (Tg+) mice infected with GAS; format: in vivo; details: 6*10^5 CFU SK(+)GAS; 5 μg per mouse intraperitoneally daily for 5 days, starting one day after infection
Procedure: To examine the in vivo efficacy of compounds CCGC, CCGE, and CCGF, Tg+ mice were first infected with 6*10^5 CFU SK(+)GAS, then injected with 5 μg of test compound per mouse intraperitoneally daily for 5 days, starting one day after infection. […] In some embodiments, small compound are delivered continuously through an ALZET® Osmotic Pump (DURECT Corporation, Cupertino, Calif.).
Tg+ mice are then used to test the efficacy of compounds in attenuating the virulence of GAS infection. 20 Tg+ mice are infected with 10^5 CFU of SK(+)GAS then injected with the estimated experimental doses of the compounds two hours later. Survival is monitored for 9 days, while a control group of Tg+ mice will be infected with SK(+)GAS injected with DMSO. The comparison of mortalities between the two groups is analyzed as described above in the toxicity test. Treating mice with compound post-infection helps avoid potential side-effects of toxic or growth inhibition of compound on SK(+)GAS at the time of infection. As a result, the effect of compound on mice survival is a more authentic reflection of the efficacy of compound on inhibiting GAS virulence. Possible scenarios include:
This example describes the in vivo efficacy of compound 575096. Human plasminogen transgenic mice (Tg+) were first infected with 10^5″^6 CFUUMAA2616, then injected with 5-30 lag of test compound per mouse intraperitoneally daily for 5 days, starting one day after infection.

Compound	SKKanGAS growth susceptibility to known antibiotics (SKKanGAS; preliminary screening with 2,000 known compounds (The Spectrum Collection))	effect on SKKanGAS and SK-GAS growth (SKKanGAS)	survival rate of Tg+ mice compared to DMSO control group (SK(+)GAS (UMAA2616))
CC[C@H]1OC(=O)[C@H](C)[C@@H](O[C@H]2C[C@@](C)(OC)[C@@H](O)[C@H](C)O2)[C@H](C)[C@@H](O[C@@H]2O[C@H](C)C[C@H](N(C)C)[C@H]2O)[C@](C)(O)C[C@@H](C)C(=O)[C@H](C)[C@@H](O)[C@]1(C)O [erythromycin, reference compound]	susceptible	–	–
COc1cc(C=CC(=O)c2cc(C)c(C)cc2C)cc(OC)c1OC [CCGF]	–	specific inhibition of SKKanGAS growth under kanamycin selection	trend toward improvement
COC(=O)c1ccccc1Sc1c(-c2ccccc2)nc2ccccn12 [CCGC]	–	specific inhibition of SKKanGAS growth under kanamycin selection	No improvement
C=CCn1c(SCCCC)nc2c(c1=O)C1(CCCCC1)Cc1ccccc1-2 [CCGE]	–	specific inhibition of SKKanGAS growth under kanamycin selection	significant improvement in survival rate

Source: patent US8501722B2, “Methods and compositions for treating bacterial infection” (priority 2009, dated 2013)
